Source: article PMC11343806 (Journal of Biological Inorganic Chemistry, 2024)

How the values were obtained:
[1] = system: A-549, HT-29, MDA-MB-231 and Vero E6 cells; test: Antiproliferative assay, summary over all cell lines; format: cell-based; details: all four cell lines; for 2c except MDA-MB-231; read-out: IC50 values, antiproliferative effects, all cell lines
Experimental: (§1) The antiproliferative effects were determined according to a previously published procedure. A volume of 100 µL of cell suspension of A549 cells, MDA-MB-231, HT-29 or Vero E6 cells was transferred into the wells of a 96-well plates and incubated at 37 °C under 5% CO2 for 72 h. […] The results were calculated as the mean values of three independent experiments, unless stated otherwise.

[2] = system: Vero E6 non-tumorigenic epithelial kidney cells; test: Antiproliferative assay (crystal violet); format: cell-based, African green monkey; details: 72 h exposure; ± standard deviation, n = 2–4; read-out: IC50, antiproliferative effects, Vero E6
Experimental: as §1

[3] = system: Klebsiella pneumoniae (DSM 11678, ATCC33495); test: MIC broth dilution, aerobic bacteria; format: cell-based; details: 20 h at 37 °C, ± standard error, n ≥ 3, read-out: MIC, K. pneumoniae
Experimental: (§2) The following strains were used and maintained at 37 °C in MHB (21 g/L Müller Hinton, pH 7.4) or TSY (30 g/L trypticase soy broth, 3 g/L yeast extract, pH 7.0–7.2) medium. Acinetobacter baumannii (DSM 30007, ATCC 19606) in MHB, Escherichia coli (DSM1116, ATCC 9637) in TSY, Klebsiella pneumoniae (DSM 11678, ATCC33495) in MHB, Pseudomonas aeruginosa PA7 (DSM 24068) in MHB, Enterococcus faecium (DSM 20477, ATCC 19434) in TSY, Staphylococcus aureus MRSA (DSM 11822, ICB 25701) in TSY). Minimum inhibitory concentration (MIC) values were determined following a standardized protocol in broth dilution assays. […] Starting inocula of 2–8 × 10^5 colony-forming units per ml in MHB or TSY media at 37 °C were used, and serial dilutions were carried out in 384-well microtiter plates in duplicate. […] The MIC values for the tested compounds were determined in three independent experiments by a curve-fitting procedure using the GraphPad Prism software (Graphpad Software, Inc.).

[4] = system: Enterococcus faecium (DSM 20477, ATCC 19434); test: MIC broth dilution, aerobic bacteria; format: cell-based; details: 20 h at 37 °C, ± standard error, n ≥ 3
Experimental: as §2

[5] = system: Acinetobacter baumannii (DSM 30007, ATCC 19606); test: MIC broth dilution, aerobic bacteria; format: cell-based; details: 20 h at 37 °C, ± standard error, n ≥ 3
Experimental: as §2

[6] = system: Pseudomonas aeruginosa PA7 (DSM 24068); test: MIC broth dilution, aerobic bacteria; format: cell-based; details: 20 h at 37 °C, ± standard error, n ≥ 3, read-out: MIC, P.aeruginosa
Experimental: as §2

[7] = system: Staphylococcus aureus MRSA (DSM 11822, ICB 25701); test: MIC broth dilution, aerobic bacteria; format: cell-based; details: 20 h at 37 °C, ± standard error, n ≥ 3
Experimental: as §2

[8] = system: C. difficile strain 1296^ T (DSM 1296), metronidazole-sensitive; test: Antibacterial effects against C. difficile (anaerobic growth curves, OD600); format: cell-based, Clostridioides difficile; details: strain 1296T
Experimental: (§3) (provided by Ulrich Nübel, DSMZ Braunschweig) were maintained in prereduced BHIS medium (37 g/L BHI, oxoid, 5% yeast extract, 1% L-cysteine) in a Coy-Laboratories anaerobic chamber (85% N2, 10% CO2, 5% H2) at 37 °C. Freshly prepared cultures were incubated until the exponential growth phase (OD600 = 0.2–0.4) and were adjusted to 1 × 10^6 cfu/mL before inoculation. The test compounds were dissolved in DMSO and by two-fold dilution steps concentrations in the range from 200 µM to 0.39 µM in BIHS medium were obtained. The solutions (100µL) were added to 100 µL of a diluted C. difficile culture (total volume: 200 µL in BIHS, 5 × 10^5 C. difficile, 100–0.195 µM test compound per well). The OD600-values over a period of 48 h were measured with a LogPhase 600 4-plate reader (BioTek) and compared with blank BHIS.

[9] = system: C. difficile strain VPI10463 (ATCC 43255), metronidazole-sensitive; test: as above; format: cell-based, Clostridioides difficile
Experimental: as §3

[10] = system: C. difficile strain IB136 (NCTC 14385), metronidazole-resistant; test: as above; format: cell-based, Clostridioides difficile
Experimental: as §3

[11] = biological target: T1, bacterial TrxR from E. coli (Escherichia coli, UniProt P0A9P4); test: Inhibition of bacterial TrxR (E. coli), DTNB/5-TNB assay; format: biochemical; details: purified enzyme, 75 min incubation at 25 °C; means and standard deviations
T1 construct: purchased Sigma-Aldrich
T1 sequence (P0A9P4 whole entry): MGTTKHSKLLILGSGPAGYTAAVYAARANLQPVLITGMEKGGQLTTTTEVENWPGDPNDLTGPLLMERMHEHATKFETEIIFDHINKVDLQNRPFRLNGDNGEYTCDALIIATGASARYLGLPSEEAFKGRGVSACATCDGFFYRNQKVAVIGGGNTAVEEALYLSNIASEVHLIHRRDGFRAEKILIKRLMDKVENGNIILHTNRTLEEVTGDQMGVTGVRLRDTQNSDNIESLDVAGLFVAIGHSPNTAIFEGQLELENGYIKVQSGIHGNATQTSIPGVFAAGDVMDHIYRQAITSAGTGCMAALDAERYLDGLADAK
Experimental: The TrxR (E.coli) inhibition assay was performed according to a previously published procedure. It is partly based on the procedure developed by Lu et al.[35] and detects the formation of 5-TNB (5-thionitrobenzoic acid). Solutions of E. coli TrxR (35.4 U/mL) and of its substrate thioredoxin (Trx) E. coli (156 µg/mL) (both purchased from Sigma-Aldrich and diluted with distilled water) and fresh stock solutions of the test compounds (in DMF) were prepared (1c was administered as suspension). TE buffer (Tris–HCl 50 mM, EDTA 1 mM, pH 7.5) containing graded concentrations of the respective compounds (20 µL) or buffer without compounds (20 µL, as control) were mixed with TrxR solution (10 µL), Trx solution (10 µL), and a solution of NADPH (200 µM) in TE buffer (100 µL) in a well on a 96-well plate. As blank solution, 200 µM NADPH in TE buffer (100 µL) mixed with a DMF/buffer mixture (40 µL) was used (final concentrations of DMF: 0.5% v/v). The solutions on the 96-well plate were incubated for 75 min at 25 °C with moderate shaking. A volume of 100 µL of a reaction mixture (TE buffer containing 200 µM NADPH and 5 mM DTNB) was added to each well to initiate the reaction. After thorough mixing, the formation of 5-TNB was monitored by a microplate reader at 405 nm in 35 s intervals (10 measurements). The values were corrected by subtraction of the values for the blank solution. The increase in concentration of 5-TNB followed a linear trend (r^2 ≥ 0.990) and the enzymatic activities were calculated as the gradients (increase in absorbance per second) thereof. Absence of interference with the assay components was confirmed by a negative control experiment for each test compound. The highest test compound concentration was used and the enzyme solution was replaced by TE buffer for this purpose. The IC50 values were calculated as the concentration of the compound decreasing the enzymatic activity of the positive control by 50% and are presented as the means and standard deviations of independent repeated experiments.

[12] = system: aerobic Gram-positive and Gram-negative pathogenic bacteria strains; test: MIC, summary over the panel of aerobic bacteria; format: cell-based
Experimental: as §2

A-549 lung cancer cells = test: Antiproliferative assay (crystal violet); format: cell-based, human; details: 72 h exposure; ± standard deviation, n = 2–4; read-out: IC50, antiproliferative effects, A-549
Experimental: as §1

[13] = system: HT-29 colon carcinoma cells; test: Antiproliferative assay (crystal violet); format: cell-based, human; details: 72 h exposure; ± standard deviation, n = 2–4; read-out: IC50, antiproliferative effects, HT-29
Experimental: as §1

[14] = system: MDA-MB-231 breast cancer cells; test: Antiproliferative assay (crystal violet); format: cell-based, human; details: 96 h exposure; ± standard deviation, n = 2–4; read-out: IC50, antiproliferative effects, MDA-MB-231
Experimental: as §1

## Cc1ncc([N+](=O)[O-])n1CCOC(=O)Cn1[c](=[Au][Cl])n(C)c2ccccc21 [Compound 2c, Chlorido-(1-methyl-3-(2-(2-(2-methyl-5-nitroimidazol-1-yl)ethoxy)-2-oxoethyl)-benzimidazol-2-yliden)gold(I)]
[1]
  IC50: > 60 µM
Solubility observations
  solubility in organic solvents: soluble in most organic solvents
[2]
  IC50: > 95 µM
[3]
  MIC: > 111.2 µM
[4]
  MIC, E. faecium: 43.3 ± 16.0 µM
[5]
  MIC: > 111.2 µM
[6]
  MIC: > 111.2 µM
[7]
  MIC, MRSA: 37.1 ± 16.0 µM
[8]; 6.25 µM, recovery of growth after extended exposure
  antibacterial effect at 6.25 µM: effective inhibitors
[8]; up to 100 µM, 48 h
  concentration leading to a complete block of bacterial growth without recovery: blocked bacterial growth at the same concentration
[9]; strain VPI10463, 6.25 µM, recovery of growth after extended exposure
  antibacterial effect at 6.25 µM: effective inhibitors
[9]; strain VPI10463, up to 100 µM, 48 h
  concentration leading to a complete block of bacterial growth without recovery: blocked bacterial growth at the same concentration
[10]; metronidazole-resistant strain IB136, up to 100 µM, 48 h
  concentration leading to a complete block of bacterial growth without recovery: blocked bacterial growth at the same concentration
[10]; resistant strain IB136, 6.25 µM
  antibacterial effect at 6.25 µM: strong effects with recovery of bacterial proliferation
[11]
  IC50: 175 ± 17 nM
[12]; MRSA and E. faecium, except for 1c in MRSA
  MIC values against Gram-positive strains: 37 to 44 µM
[12]; aerobic conditions
  activity against Gram-negative strains (in words): inactive
A-549 lung cancer cells
  IC50: 81.9 ± 2.8 µM
[13]
  IC50: 80.7 ± 5.9 µM
[14]
  IC50: 31.8 ± 4.1 µM
